Data from patent US8383658B2, “Isoxazole based neuronal nicotinic receptor ligands and methods of use” (Abbott Laboratories, priority 2008, dated 2013).

Molecular target: T1, human α4β2 (Homo sapiens, UniProt P17787+P43681)
T1 construct: expressed in transfected cells
Assay: Calcium flux assay (FLIPR), potentiation of submaximal agonist response in HEK 293 cells expressing α4β2
Format: cell-based
Conditions: α4β2 PAM; fluorescence response to submaximal nicotine considered as 100%
From the text: One manner to characterize α4β2 PAM activity is by characterization in clonal cell lines (for example, human embryonic kidney 293 cells) expressing the human neuronal nicotinic acetylcholine receptor subtype α4β2, particularly by use of Fluorescent Image Plate Reader technology. Effects on calcium flux or membrane potential changes can be assessed. Such assays have been reported and further details for carrying out the assays can be obtained in International Publication No. WO 2006/114400. Another method to identify and characterize allosteric modulator activity is by expressing the α4β2 subunits in Xenopus oocytes, and by measuring electrophysiological effects on ligand-evoked current responses as previously described in Curtis, L., et al., Molecular Pharmacology, 61: 127-135, 2002.
To determine the effectiveness of representative compounds of this invention as ligands for α4β2 PAM activity, the compounds of the invention can be evaluated according to the Calcium Flux Assay described below.
Human embryonic kidney (HEK) 293 cells stably expressing human α4β2 or α3β4 combinations are grown to confluency in 162 cm^2 tissue culture flasks in DMEM media supplemented with 10% FBS and 25 μg/ml zeocin and 200 μg/ml hygromycin B. Cells expressing rat or ferret subunits may also be used. For assessing α3* or α7* selectivity, IMR-32 cells may also be used. IMR-32 neuroblastoma cells (ATCC) are grown to confluency in 162 cm^2 tissue culture flasks in minimum essential media supplemented with 10% FBS and 1 mM sodium pyruvate, 1% non-essential amino acids and 1% antibiotic-antimycotic. For the calcium flux assay, c cells are then dissociated using cell dissociation buffer and 100-150 μl per well of 3.5×10^5 cells/ml cell suspension (˜50,000-100,000 cells/well) was plated into 96-well black plates (poly-D-lysine precoated) with clear bottom and maintained for 24-48 hours in a tissue culture incubator at 37° C. under an atmosphere of 5% CO2: 95% air. Other clonal cell lines or primary cell cultures that express endogenous α4* nicotinic receptors may also be used in this assay. Calcium flux was measured using calcium-3 assay kit (Molecular Devices, Sunnyvale, Calif.) or fluo-4 (Invitrogen). A stock solution of the dye was prepared by dissolving each vial supplied by the vendor in Hank's balanced salt solution buffer (HBSS) or 150 mM NMDG, 20 mM CaCl2 containing 10 mM HEPES. The stock solution was diluted 1:20 using the same buffer before use. The growth media was removed from the cells. The cells were loaded with 100 μl of the dye per well and incubated at room temperature for up to one hour for HEK 293 clonal stable cell lines or 30 minutes-45 minutes at 37° C. for IMR-32 cells. Fluorescence measurements were read simultaneously from all the wells by a Fluorometic Imaging Plate Reader (FLIPR) at an excitation wavelength of 480 nm and an emission wavelength of 520 nm. Baseline fluorescence was measured for the first 6 seconds at which 3× concentrations of modulator/test compounds were added to the cell plate at 50 μl and incubated for five minutes. The fluorescence intensity was captured every second for the first 1 minute followed by every 5 seconds for an additional 4 minutes. This procedure was followed by 50 μl of 4× concentration of agonist and readings were taken for a period of 3-5 minutes as described above.
The ability of test compounds to positively modulate the response (i.e., increase the response) induced by a submaximal concentration of agonist (EC20-30%) such as nicotine is measured. Potentiation is measured based on peak fluorescence responses by screening compounds at fixed concentrations or in a concentration-response manner to derive EC50 values. The concentration dependence of changes in fluorescence responses is fitted by nonlinear regression analysis (GraphPad Prism, San Diego, Calif.) to obtain EC50 values. The degree of potentiation and EC50 values of the test compounds are typically calculated. […]

T1 sequence (P43681 29-627 limits assumed): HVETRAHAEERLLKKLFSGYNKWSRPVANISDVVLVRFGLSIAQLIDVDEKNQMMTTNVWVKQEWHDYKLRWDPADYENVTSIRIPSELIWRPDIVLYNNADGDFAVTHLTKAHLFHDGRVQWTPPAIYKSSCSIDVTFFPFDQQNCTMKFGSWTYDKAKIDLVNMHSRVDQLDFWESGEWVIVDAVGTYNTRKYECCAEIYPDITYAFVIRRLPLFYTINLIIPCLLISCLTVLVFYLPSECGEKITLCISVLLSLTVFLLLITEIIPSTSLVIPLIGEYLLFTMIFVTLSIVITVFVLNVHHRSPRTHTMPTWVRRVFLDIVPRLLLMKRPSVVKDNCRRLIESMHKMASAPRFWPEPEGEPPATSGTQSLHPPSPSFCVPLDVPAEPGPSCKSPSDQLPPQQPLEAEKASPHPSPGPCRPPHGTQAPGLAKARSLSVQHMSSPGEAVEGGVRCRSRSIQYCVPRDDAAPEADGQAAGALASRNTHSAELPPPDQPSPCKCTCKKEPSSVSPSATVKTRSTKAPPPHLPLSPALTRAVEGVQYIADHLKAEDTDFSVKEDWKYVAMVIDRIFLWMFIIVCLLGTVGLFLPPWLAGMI
T1 sequence (P17787 26-502): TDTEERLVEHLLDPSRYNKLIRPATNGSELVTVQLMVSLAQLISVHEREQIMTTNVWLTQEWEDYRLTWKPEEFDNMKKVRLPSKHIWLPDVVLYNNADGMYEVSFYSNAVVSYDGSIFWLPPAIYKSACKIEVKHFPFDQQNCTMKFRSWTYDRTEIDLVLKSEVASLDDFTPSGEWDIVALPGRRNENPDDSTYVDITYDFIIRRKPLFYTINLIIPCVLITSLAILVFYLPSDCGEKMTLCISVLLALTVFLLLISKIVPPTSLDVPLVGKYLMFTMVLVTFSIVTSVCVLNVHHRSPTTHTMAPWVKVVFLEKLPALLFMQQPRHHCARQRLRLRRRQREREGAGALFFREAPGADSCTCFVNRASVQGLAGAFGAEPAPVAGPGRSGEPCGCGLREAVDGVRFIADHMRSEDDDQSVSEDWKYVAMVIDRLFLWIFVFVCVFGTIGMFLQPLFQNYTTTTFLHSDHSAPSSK

Row | Structure (SMILES) | Activity (allosteric effects—potentiation of fluorescence responses)
1 | c1cncc(-c2cc(-c3cccnc3)on2)c1 [Example 1, 3,5-Di(pyridin-3-yl)isoxazole] | a (“a” denotes as activity range from 200-400%)
2 | Fc1ccc(-c2cc(-c3cccnc3)no2)cc1F [Example 16, 5-(3,4-Difluorophenyl)-3-(pyridin-3-yl)isoxazole] | b (“b” denotes an activity range from 150-200%)
3 | Fc1cc(-c2cc(-c3cccnc3)no2)cc(F)c1F [Example 17, 5-(3,4,5-Trifluorophenyl)-3-(pyridin-3-yl)isoxazole] | a (“a” denotes as activity range from 200-400%)
4 | CC(=O)c1cccc(-c2cc(-c3cccnc3)no2)c1 [Example 25, 1-(3-(3-(Pyridin-3-yl)isoxazol-5-yl)phenyl)ethanone] | b (“b” denotes an activity range from 150-200%)
5 | N#Cc1cccc(-c2cc(-c3cncc(F)c3)no2)c1 [Example 29, 3-(3-(5-Fluoropyridin-3-yl)isoxazol-5-yl)benzonitrile] | b (“b” denotes an activity range from 150-200%)
6 | N#Cc1cc(-c2cc(-c3cccnc3)no2)ccc1F [Example 68, 2-Fluoro-5-(3-(pyridin-3-yl)isoxazol-5-yl)benzonitrile] | a (“a” denotes as activity range from 200-400%)
